Experimental data reported in US20130252890A1, “6,7-DIHYDRO-5H-BENZO[7]ANNULENE DERIVATIVES, PROCESS FOR PREPARATION THEREOF, PHARMACEUTICAL PREPARATIONS COMPRISING THEM, AND THE USE THEREOF FOR PRODUCTION OF MEDICAMENTS” (BAYER INTELLECTUAL PROPERTY GMBH, priority 2010, published 2013).

What follows are molecules tested against T1, oestrogen receptor (ER) (Homo sapiens, UniProt P03372) (assay: Anti-oestrogenic action in MVLN cells (inhibition of estradiol-induced luciferase)). Details: inhibition of estradiol-induced luciferase signal, value of Ex. 44 is a mean value, read-out: Antioestrogenic action in vitro: MVLN transactivation antagonism IC50.
T1 construct: These MVLN cells express, along with the functional oestrogen receptor (ER), a reporter construct; endogenous in cells; host or cells: MVLN cells (MCF7 derivative carrying a luciferase reporter construct)
T1 sequence (P03372 1-595): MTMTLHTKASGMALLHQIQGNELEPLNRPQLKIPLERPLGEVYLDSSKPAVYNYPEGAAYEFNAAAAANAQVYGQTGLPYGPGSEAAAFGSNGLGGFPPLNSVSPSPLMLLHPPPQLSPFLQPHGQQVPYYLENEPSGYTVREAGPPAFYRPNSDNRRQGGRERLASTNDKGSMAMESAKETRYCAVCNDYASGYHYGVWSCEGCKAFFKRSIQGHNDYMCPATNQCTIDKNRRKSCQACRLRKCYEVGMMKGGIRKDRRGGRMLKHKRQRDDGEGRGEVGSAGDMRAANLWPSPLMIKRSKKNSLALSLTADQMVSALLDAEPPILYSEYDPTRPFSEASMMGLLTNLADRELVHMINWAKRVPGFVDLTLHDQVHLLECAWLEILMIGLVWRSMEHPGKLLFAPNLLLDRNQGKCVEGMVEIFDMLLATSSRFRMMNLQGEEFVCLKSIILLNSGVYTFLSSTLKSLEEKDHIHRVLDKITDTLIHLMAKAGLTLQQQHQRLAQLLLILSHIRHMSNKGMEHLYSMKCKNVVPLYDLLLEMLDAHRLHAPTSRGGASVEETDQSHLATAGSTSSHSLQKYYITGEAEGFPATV
Type: cell-based
From the text: The anti-oestrogenic action of the claimed pharmacological compounds was investigated in so-called MVLN cells in vitro. MVLN cells are derivatives of the hormone-responsive MCF7 breast cancer cells known by a person skilled in the art. These MVLN cells express, along with the functional oestrogen receptor (ER), a reporter construct, which under ER-activation expresses luciferase. Determination of the activity of the induced luciferase permits a direct conclusion on the oestrogen properties of substances. To investigate the anti-oestrogenic properties of the pharmacological compounds, they were investigated in the presence of oestrogen for their potential for inhibiting the luciferase signal induced by estradiol. The claimed pharmacological test substances were investigated in MVLN cells for their anti-oestrogenic potential, as described (see Table 2).

IC50 [nM] | SMILES
85 | CN(CCCCCCC1=C(c2ccc(F)cc2)CCCc2cc(O)ccc21)CCCS(=O)(=O)CCC(F)(F)F [Example 53, 8-(4-Fluorophenyl)-9-[6-(methyl{3-[(3,3,3-trifluoropropyl)sulphonyl]propyl}amino)hexyl]-6,7-dihydro-5H-benzo[7]annulen-3-ol]
27 | O=S(=O)(CCCN(CCO)CCCCCCC1=C(c2ccc(F)cc2)CCCc2cc(O)ccc21)CCCC(F)(F)C(F)(F)F [Example 54, 8-(4-Fluorophenyl)-9-{6-[(2-hydroxyethyl){3-[(4,4,5,5,5-pentafluoropentyl)sulphonyl]propyl}amino]hexyl}-6,7-dihydro-5H-benzo[7]annulen-3-ol]
22 | O=S(=O)(CCCN(CCCO)CCCCCCC1=C(c2ccc(F)cc2)CCCc2cc(O)ccc21)CCCC(F)(F)C(F)(F)F [Example 55, 8-(4-Fluorophenyl)-9-{6-[(3-hydroxypropyl){3-[(4,4,5,5,5-pentafluoropentyl)sulphonyl]propyl}amino]hexyl}-6,7-dihydro-5H-benzo[7]annulen-3-ol]
29 | O=S(=O)(CCCN(CCO)CCCCCCC1=C(c2ccc(F)cc2)CCCc2cc(O)ccc21)CCC(F)(F)F [Example 56, 8-(4-Fluorophenyl)-9-{6-[(2-hydroxyethyl){3-[(3,3,3-trifluoropropyl)sulphonyl]propyl}amino]hexyl}-6,7-dihydro-5H-benzo[7]annulen-3-ol]
111 | O=S(=O)(CCCN(CCCO)CCCCCCC1=C(c2ccc(F)cc2)CCCc2cc(O)ccc21)CCC(F)(F)F [Example 57, 8-(4-Fluorophenyl)-9-{6-[(3-hydroxypropyl){3-[(3,3,3-trifluoropropyl)sulphonyl]propyl}amino]hexyl}-6,7-dihydro-5H-benzo[7]annulen-3-ol]
184 | O=S(=O)(CCCN(CCCCCCC1=C(c2ccc(F)cc2)CCCc2cc(O)ccc21)Cc1ccc(F)cc1)CCCC(F)(F)C(F)(F)F [Example 58, 9-{6-[(4-Fluorobenzyl){3-[(4,4,5,5,5-pentafluoropentyl)sulphonyl]propyl}amino]hexyl}-8-(4-fluorophenyl)-6,7-dihydro-5H-benzo[7]annulen-3-ol]
16 | O=S(=O)(CCCN(CCO)CCCCCCC1=C(c2ccc(F)cc2)CCCc2c1ccc(O)c2F)CCCC(F)(F)C(F)(F)F [Example 59, 4-Fluoro-8-(4-fluorophenyl)-9-{6-[(2-hydroxyethyl){3-[(4,4,5,5,5-pentafluoropentyl)sulphonyl]propyl}amino]hexyl}-6,7-dihydro-5H-benzo[7]annulen-3-ol]
15 | O=S(=O)(CCCN(CCCO)CCCCCCC1=C(c2ccc(F)cc2)CCCc2c1ccc(O)c2F)CCCC(F)(F)C(F)(F)F [Example 60, 4-Fluoro-8-(4-fluorophenyl)-9-{6-[(3-hydroxypropyl){3-[(4,4,5,5,5-pentafluoropentyl)sulphonyl]propyl}amino]hexyl}-6,7-dihydro-5H-benzo[7]annulen-3-ol]
24 | O=S(=O)(CCCN(CCO)CCCCCCC1=C(c2ccc(F)cc2)CCCc2c1ccc(O)c2F)CCC(F)(F)F [Example 61, 4-Fluoro-8-(4-fluorophenyl)-9-{6-[(2-hydroxyethyl){3-[(3,3,3-trifluoropropyl)sulphonyl]propyl}amino]hexyl}-6,7-dihydro-5H-benzo[7]annulen-3-ol]
84 | O=S(=O)(CCCN(CCCO)CCCCCCC1=C(c2ccc(F)cc2)CCCc2c1ccc(O)c2F)CCC(F)(F)F [Example 62, 4-Fluoro-8-(4-fluorophenyl)-9-{6-[(3-hydroxypropyl){3-[(3,3,3-trifluoropropyl)sulphonyl]propyl}amino]hexyl}-6,7-dihydro-5H-benzo[7]annulen-3-ol]
95 | CC(C)(C)N(CCCCCCC1=C(c2ccc(F)cc2)CCCc2c1ccc(O)c2F)CCCS(=O)(=O)CCCC(F)(F)C(F)(F)F [Example 63, 9-[6-(tert-Butyl{3-[(4,4,5,5,5-pentafluoropentyl)sulphonyl]propyl}amino)hexyl]-4-fluoro-8-(4-fluorophenyl)-6,7-dihydro-5H-benzo[7]annulen-3-ol]
